Measured values published in article PMC10648877, “Novel Substituted Azoloazines with Anticoagulant Activity” (International Journal of Molecular Sciences, 2023).

Key:
[1] = test system: platelet-poor plasma (PPP); assay: Prothrombin time (PT), rabbit blood coagulogram in vitro; conditions: 100 μM, M ± m, n = 6;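 further: clotting time read chronometrically on a hemocoagulometer using commercial reagent kits, with dabigatran etexilate at the same concentration as reference anticoagulant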
Description: The study was performed on platelet-poor plasma (PPP) stabilized with a 3.8% sodium citrate solution in a ratio of 9:1 according to the method described in [34]. Dabigatran etexilate (Boehringer Ingelheim Pharma GmbH and Co., Ingelheim am Rhein, Germany) was used as the reference drug. Test compounds and the reference drug were evaluated at a concentration of 100 μM. Effect on rabbit blood coagulograms in vitro was determined chronometrically with a SOLAR hemocoagulometer (Minsk, Belarus) using commercial kits (Technology-Standard, Barnaul, Russia) as per the manufacturer’s instructions. The following parameters were determined: activated partial thromboplastin time, thrombin time, and prothrombin time.

[2] = test system: platelet-poor plasma (PPP); assay: Thrombin time (TT), rabbit blood coagulogram in vitro; assay type: biochemical; conditions: rabbit blood in vitro, 100 μM; for TT: M ± m, n = 6
[3] = test system: platelet-poor plasma (PPP); assay: Activated partial thromboplastin time (APTT), rabbit blood coagulogram in vitro; assay type: biochemical; conditions: 100 μM, M ± m, n = 6;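 further: clotting time read chronometrically on a hemocoagulometer with commercial reagent kits, one of several coagulogram parameters alongside thrombin and prothrombin time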
Description: Test compounds and the reference drug were evaluated at a concentration of 100 μM. Effect on rabbit blood coagulograms in vitro was determined chronometrically with a SOLAR hemocoagulometer (Minsk, Belarus) using commercial kits (Technology-Standard, Barnaul, Russia) as per the manufacturer’s instructions. The following parameters were determined: activated partial thromboplastin time, thrombin time, and prothrombin time.

SMILES	PT [1]	TT [2]	APTT [3]	melting point	increase of thrombin time relative to the control [2]	anticoagulant activity / thrombin time prolongation compared with dabigatran etexilate [2]
CCCCCCCCCCCCSc1cnc2nnc(NC(=N)N)nn12 [Compound 15b]	14.0 ± 0.2 s	33.7 ± 0.6 s	34.1 ± 0.5 s			
O=[N+]([O-])C1=NNc2ncnn2C1O (centres unmarked) [Compound 14, 6-Nitro-7-hydroxy-4,7-dihydro-1,2,4-triazolo[5,1-c]triazinyl-4 guanidate]	14.5 ± 0.5 s	23.8 ± 3.5 s	24.5 ± 0.8 s			
CCCCCCCCSc1nnc2nnc(NC(=N)N)nn12 [Compound 16a, 6-Guanidino-3-octylthio-[1,2,4]triazolo[4,3-b][1,2,4,5]tetrazine]	12.2 ± 0.2 s	34.3 ± 4.7 s	29.1 ± 1.4 s	> 260 °C		
CCOC(=O)C1=C(C)Nc2ncnn2C1c1ccc(NC(=O)CN)cc1 (centres unmarked) [Compound 10b, Ethyl 7-(4-(2-aminoacetamido)phenyl)-5-methyl-4,7-dihydro-[1,2,4]triazolo[1,5-a]pyrimi-dine-6-carboxy-late]	12.7 ± 0.2 s	27.1 ± 1.4 s	30.6 ± 2.6 s	270 to 272 °C		
COC1C([N+](=O)[O-])=CNc2nc(C(F)(F)F)nn21 (centres unmarked) [Compound 12a, 2-Trifluoromethyl-6-nitro-7-methoxy-4,7-dihydro[1,5-a]pyrimidyl-4 guanidate]	14.2 ± 0.1 s	24.3 ± 3.5 s	25.1 ± 0.8 s			
C1=C(c2ccccc2)n2ncnc2NC1c1cccs1 (centres unmarked) [Compound 5b]	15.8 ± 0.3 s	21.0 ± 0.0 s	25.9 ± 2.2 s			
Cc1cc2nc3c4ccccc4n(CCN(C)C)c3nc2cc1C [Compound 1a]	14.5 ± 0.0 s	22.7 ± 2.0 s	22.1 ± 5.9 s			
N=C(N)Nc1nnc2nnc(SC3CCCC3)n2n1 [Compound 16b, 6-Guanidino-3-cyclopentylthio-[1,2,4]triazolo[4,3-b][1,2,4,5]tetrazine]	13.9 ± 0.5 s	22.7 ± 1.7 s	24.7 ± 1.2 s	252 to 253 °C		
CCCn1c2ccccc2c2nc3cc(C)c(C)cc3nc21 [Compound 1e]	13.4 ± 0.1 s	38.0 ± 0.5 s	29.6 ± 0.2 s			
N=C(N)Nc1nnc2ncc(SCc3ccccc3)n2n1 [Compound 15a]	14.5 ± 0.3 s	32.8 ± 0.8 s	34.0 ± 0.6 s			
C1=C(c2ccccc2)n2ncnc2NC1c1ccccc1 (centres unmarked) [Compound 5a]	13.4 ± 0.1 s	43.8 ± 4.3 s	26.3 ± 2.9 s		3.5 times	
CCOC(=O)C1=C(C)Nc2ncnn2C1c1ccccc1 (centres unmarked) [Compound 8c]	14.2 ± 0.1 s	34.7 ± 0.7 s	34.6 ± 0.7 s			
N=C(N)Nc1nnc2nnc(SCc3cccc(F)c3)n2n1 [Compound 16]	14.1 ± 0.3 s	25.9 ± 1.6 s	26.3 ± 1.1 s	235 to 237 °C		
Nc1ccc(-c2cc(-c3cccs3)n3ncnc3n2)cc1 [Compound 7b, 4-(7-(Thiophen-2-yl)-[1,2,4]triazolo[1,5-a]pyrimidin-5-yl)aniline]	13.6 ± 0.5 s	32.3 ± 0.9 s	35.0 ± 0.2 s	211 to 214 °C		
CCCCn1c2ccccc2c2nc3cc(C)c(C)cc3nc21 [Compound 1g]	11.7 ± 0.4 s	34.1 ± 0.9 s	30.6 ± 1.6 s			
CCOC(=O)C1=C(C)Nc2ncnn2C1c1cccc(NC(=O)CN)c1 (centres unmarked) [Compound 10a, Ethyl 7-(3-(2-aminoacetamido)phenyl)-5-methyl-4,7-dihydro-[1,2,4]triazolo[1,5-a]pyrimi-dine-6-carboxylate]	13.2 ± 1.0 s	48.6 ± 22.4 s	30.9 ± 0.6 s	270 to 272 °C	3.5 times	
Cc1cc2nc3c4ccccc4n(CCCN(C)C)c3nc2cc1C [Compound 1i]	13.8 ± 0.3 s	21.9 ± 1.2 s	32.1 ± 4.8 s			
Cc1cc2nc3c4ccccc4n(CCN4CCOCC4)c3nc2cc1C [Compound 1c]	13.8 ± 0.4 s	26.2 ± 1.0 s	27.1 ± 2.0 s			
CN(C)CCCn1c2ccccc2c2nc3ccccc3nc21 [Compound 1j]	14.2 ± 0.4 s	22.0 ± 2.7 s	32.5 ± 0.1 s			
CCCn1c2ccccc2c2nc3ccccc3nc21 [Compound 1f]	13.1 ± 0.3 s	39.3 ± 1.8 s	24.8 ± 4.2 s		3.5 times	
CN(C)CCn1c2ccccc2c2nc3ccccc3nc21 [Compound 1b]	13.3 ± 0.2 s	23.9 ± 0.9 s	26.8 ± 2.4 s			
Nc1ccc(-c2cc(-c3ccc(N)cc3)n3ccnc3n2)cc1 [Compound 7a, 4,4′-(Imidazo[1,2-a]pyrimidine-5,7-diyl)dianiline]	11.62 ± 1.00 s	66.58 ± 4.64 s	56.23 ± 5.05 s	169 to 171 °C		comparable to dabigatran etexilate in terms of activity
C1=C(c2cccs2)n2ncnc2NC1c1ccccc1 (centres unmarked) [Compound 5c]	13.9 ± 0.2 s	41.4 ± 3.1 s	27.6 ± 1.9 s			
c1ccc2nc3c(nc2c1)c1ccccc1n3CCN1CCOCC1 [Compound 1d]	13.4 ± 0.3 s	26.7 ± 1.3 s	18.2 ± 0.5 s			
CCCCn1c2ccccc2c2nc3ccccc3nc21 [Compound 1h]	13.9 ± 0.1 s	35.6 ± 1.1 s	25.7 ± 3.1 s			
